Measurements published in patent US20260234157A1, “COMPOUND AND METHOD FOR TARGETED DEGRADATION OF ANDROGEN RECEPTOR” (Gan & Lee Pharmaceuticals Co., Ltd., priority 2023, published 2026).
Where a chain is given by its changes, count along the chain named. Like-named read-outs stand apart in the source and are kept apart here.

Assays:
Format in all cases: cell-based
AR protein [1] = target: T1, AR protein (Homo sapiens, UniProt P10275, T878A); experiment: Degradation of AR protein in LNCaP cells (Western blot); conditions: for inhibition at 0.01 µM: read-out: Degradation rates of the AR protein in LNCaP cells, 10 nM (%); for inhibition at 0.1 µM: read-out: Degradation rates of the AR protein in LNCaP cells, 100 nM (%)
T1 construct: degradation activity of the compounds disclosed in the present disclosure on AR protein in LNCaP cells; host or cells: LNCaP FGC
T1 sequence (P10275 1-920 T878A): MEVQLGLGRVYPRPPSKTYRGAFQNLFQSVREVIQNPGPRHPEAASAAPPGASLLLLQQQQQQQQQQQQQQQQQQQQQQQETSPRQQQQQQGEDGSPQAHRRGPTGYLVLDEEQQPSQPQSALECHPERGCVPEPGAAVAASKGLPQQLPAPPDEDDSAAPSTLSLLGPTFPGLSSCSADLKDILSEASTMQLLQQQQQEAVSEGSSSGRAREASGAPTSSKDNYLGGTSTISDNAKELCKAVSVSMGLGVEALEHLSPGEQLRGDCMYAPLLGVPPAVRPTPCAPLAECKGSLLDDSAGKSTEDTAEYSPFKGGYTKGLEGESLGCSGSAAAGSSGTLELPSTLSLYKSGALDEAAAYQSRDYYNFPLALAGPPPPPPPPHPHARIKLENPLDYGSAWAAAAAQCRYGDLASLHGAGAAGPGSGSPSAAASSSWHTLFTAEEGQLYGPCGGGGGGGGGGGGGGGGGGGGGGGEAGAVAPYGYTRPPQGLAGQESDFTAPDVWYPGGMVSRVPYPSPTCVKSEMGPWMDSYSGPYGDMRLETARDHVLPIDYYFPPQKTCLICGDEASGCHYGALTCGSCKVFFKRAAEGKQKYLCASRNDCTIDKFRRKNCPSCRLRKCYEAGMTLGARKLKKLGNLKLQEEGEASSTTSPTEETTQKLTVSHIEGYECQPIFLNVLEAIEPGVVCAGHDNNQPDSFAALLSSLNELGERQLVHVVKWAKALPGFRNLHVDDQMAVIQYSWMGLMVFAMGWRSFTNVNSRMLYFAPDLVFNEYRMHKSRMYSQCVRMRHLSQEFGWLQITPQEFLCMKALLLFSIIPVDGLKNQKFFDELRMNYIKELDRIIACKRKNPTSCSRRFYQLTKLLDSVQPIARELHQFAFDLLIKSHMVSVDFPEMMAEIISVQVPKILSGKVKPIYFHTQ
How it was run: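 AR assessed by SDS-PAGE/Western blot with infrared imaging; band greyscale normalised to GAPDH gave percent degradation.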

AR protein [2] = target: T2, AR protein (Homo sapiens, UniProt P10275); experiment: Degradation of AR protein in VCaP cells (Western blot); conditions: 8 hours; for inhibition at 0.01 µM: compound at 10 nM, read-out: Degradation rate of the AR protein in VCaP cells, 10 nM (%); for inhibition at 0.1 µM: compound at 100 nM, read-out: Degradation rate of the AR protein in VCaP cells, 100 nM (%)
T2 construct: degradation activity of the compounds disclosed in the present disclosure on AR protein in VCaP cells; host or cells: VCaP
T2 sequence (P10275 1-920): T1 sequence (P10275 1-920 T878A) with A878T
How it was run: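 VCaP cells treated with compound alongside solvent controls for 8 h, then lysed in RIPA and protein quantified by BCA. AR detected by SDS-PAGE/Western blot with infrared imaging. Degradation rate calculated from band grayscale, with GAPDH as internal reference.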

LNCaP FGC cells = experiment: Inhibition of proliferation of LNCaP cells (WST-8); conditions: Homo sapiens, LNCaP, 96 h
Experimental: The cells were cultured in a cell culture incubator with 5% CO2 at 37° C. overnight. […] On the sixth day, 96 well plates were taken out, and 20 μL of WST-8 (Beytime, C0040) reagent was added to each well.

VCaP cells = experiment: Inhibition of proliferation of VCaP cells (WST-8); conditions: Homo sapiens, read-out: IC50 for inhibiting the proliferation of VCaP cells
How it was run: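 VCaP FGC cells, 15000 per well in DMEM with 10% FBS, were cultured at 37° C, 5% CO2. On day nine, WST-8 reagent was added to read proliferation.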

[3] = LNCaP cells, compound 10 nM, 8 hours, Western blot grayscale, GAPDH internal reference
[4] = LNCaP cells, compound 100 nM, 8 hours, Western blot grayscale, GAPDH internal reference
[5] = LNCaP FGC cells, 96 hours, WST-8 absorbance at 450 nm, read-out: IC50 for inhibiting the proliferation of LNCaP cells
[6] = VCaP cells, 168 hours, WST-8 absorbance at 450 nm
[7] = read-out: IC50 for inhibiting the proliferation of LNCaP cells, LNCaP FGC cells, 96 hours, WST-8 absorbance at 450 nm

Structure (SMILES)	inhibition at 0.01 µM (AR protein [1]; [3])	inhibition at 0.1 µM (AR protein [1]; [4])	inhibition at 0.01 µM (AR protein [2])	inhibition at 0.1 µM (AR protein [2])	IC50 (LNCaP FGC cells; [5])	IC50 (VCaP cells; [6])	inhibition at 0.01 µM (AR protein [1]; LNCaP, 8 h)	inhibition at 0.1 µM (AR protein [1]; LNCaP, 8 h)	IC50 (LNCaP FGC cells; [7])	IC50 (VCaP cells; VCaP, 168 h)
CC1(C)[C@H](NC(=O)c2ccc(N3CCC(F)(CN4CCC5(CC4)COc4c5ccc5c4CN(C4CCC(=O)NC4=O)C5=O)CC3)nn2)C(C)(C)[C@H]1Oc1ccc(C#N)c(C(F)(F)F)c1 (stereo partly drawn) [Compound 237]	6%	39%	-46%	23%	0.051 µM	0.0045 µM				
N#Cc1ccc(O[C@H]2CC[C@H](NC(=O)c3ccc(N4CC5(CCc6cc7c(cc6O5)C(=O)N(C5CCC(=O)NC5=O)C7=O)C4)nn3)CC2)cc1Cl (stereo partly drawn) [Compound 6]	58%	46%	13%	28%	5.17 µM	7.5 µM				
CCOC1(CN2CCC3(CC2)COc2c3ccc3c2C(=O)N(C2CCC(=O)NC2=O)C3=O)CCN(c2ccc(C(=O)N[C@H]3CC[C@H](Oc4ccc(C#N)c(Cl)c4)CC3)nn2)CC1 (stereo partly drawn) [Compound 244]	-5%	65%	3%	56%	0.17 µM	0.068 µM				
COc1cc(O[C@H]2C(C)(C)[C@H](NC(=O)c3ccc(N4CCC(C)(CN5CCC6(CC5)COc5cc7c(cc5C6)C(=O)N(C5CCC(=O)NC5=O)C7=O)CC4)cc3)C2(C)C)ccc1C#N (stereo partly drawn) [Compound 289]	27%	63%	-21%	15%	66 µM	0.082 µM				
N#Cc1ccc(O[C@H]2CC[C@H](NC(=O)c3ccc(N4CCC(CN5CCC6(CC5)Oc5cc7c(cc5CC6(F)F)C(=O)N(C5CCC(=O)NC5=O)C7=O)CC4)nn3)CC2)cc1Cl (stereo partly drawn) [Compound 18]	7%	57%	59%	69%	4.94 µM	0.11 µM				
N#Cc1ccc(O[C@H]2CC[C@H](NC(=O)c3ccc(N4CCC(C#N)(CN5CCC6(CC5)COc5c6ccc6c5C(=O)N(C5CCC(=O)NC5=O)C6=O)CC4)nn3)CC2)cc1C(F)(F)F (stereo partly drawn) [Compound 228]	30%	56%	-9%	18%	2.29 µM	0.47 µM				
N#Cc1ccc(O[C@H]2CC[C@H](NC(=O)c3ccc(N4CCC(N5CCC6(CCc7cc8c(cc7O6)C(=O)N(C6CCC(=O)NC6=O)C8=O)CC5)CC4)nn3)CC2)cc1Cl (stereo partly drawn) [Compound 26]			48%	56%			61%	56%	1.2 µM	0.75 µM
CCOC1(CN2CCC3(CC2)COc2c3ccc3c2C(=O)N(C2CCC(=O)NC2=O)C3=O)CCN(c2ccc(C(=O)N[C@H]3CC[C@H](Oc4ccc(C#N)c(OC)c4)CC3)nn2)CC1 (stereo partly drawn) [Compound 243]	24%	58%	16%	68%	0.12 µM	0.018 µM				
N#Cc1ccc(O[C@H]2CC[C@H](NC(=O)c3ccc(N4CC5(CC(N6CCC7(CCc8cc9c(cc8O7)C(=O)N(C7CCC(=O)NC7=O)C9=O)CC6)C5)C4)nn3)CC2)cc1Cl (stereo partly drawn) [Compound 32]	22%	53%	58%	64%	3.6 µM	0.52 µM				
CCC1(CN2CCC3(CC2)COc2c3ccc3c2C(=O)N(C2CCC(=O)NC2=O)C3=O)CCN(c2ccc(C(=O)N[C@H]3CC[C@H](Oc4ccc(C#N)c(Cl)c4)CC3)nn2)CC1 (stereo partly drawn) [Compound 249]	-5%	51%	-21%	56%	12.1 µM	0.22 µM				
N#Cc1ccc(O[C@H]2CC[C@H](NC(=O)c3ccc(N4CCC(F)(CN5CCC6(CC5)COc5c6ccc6c5CN(C5CCC(=O)NC5=O)C6=O)CC4)cn3)CC2)cc1Cl (stereo partly drawn) [Compound 260]	13%	9%	15%	74%	0.004 µM	0.001 µM				
COc1cc(O[C@H]2C(C)(C)[C@H](NC(=O)c3ccc(N4CCC(CN5CC6(CCc7ccc8c(c7O6)C(=O)N(C6CCC(=O)NC6=O)C8=O)C5)CC4)cc3)C2(C)C)ccc1C#N (stereo partly drawn) [Compound 278]	-3%	34%	-30%	-16%	60 µM	9.2 µM				
N#Cc1ccc(O[C@H]2CC[C@H](NC(=O)c3ccc(N4CCC(N5CCC6(CC5)COc5cc7c(cc56)C(=O)N(C5CCC(=O)NC5=O)C7=O)CC4)nn3)CC2)cc1Cl (stereo partly drawn) [Compound 48]			69%	82%			73%	91%	1.67 µM	0.18 µM
N#Cc1ccc(O[C@H]2CC[C@H](NC(=O)c3ccc(N4CCC5(CC4)CC(F)(F)c4cc6c(cc4O5)C(=O)N(C4CCC(=O)NC4=O)C6=O)nn3)CC2)cc1Cl (stereo partly drawn) [Compound 36]	18%	22%	17%	19%	3.2 µM	7.07 µM				
COc1cc(O[C@H]2CC[C@H](NC(=O)c3ccc(N4CCC(C#N)(CN5CCC6(CC5)COc5c6ccc6c5C(=O)N(C5CCC(=O)NC5=O)C6=O)CC4)nn3)CC2)ccc1C#N (stereo partly drawn) [Compound 229]	49%	59%	33%	73%	0.33 µM	0.015 µM				
